Data on 4 molecules can be found in US7585977B2, “Selective estrogen receptor modulators containing a phenylsulfonyl group” (Eli Lilly and Company, priority 2005, dated 2009).

In data set [1] the test system is Ishikawa human endometrial tumor cells. The experiment in a line: Ishikawa Cell Proliferation Assay, antagonist mode (block of estradiol stimulation). The data set is classed as cell-based. As to the method: Ishikawa Cell Proliferation Assay: This assay measures cell proliferation (using an alkaline phosphatase readout) in both an agonist mode in the presence of a compound of the present invention alone, and in an antagonist mode in which the ability of a compound of the present invention to block estradiol stimulation of growth is measured.
Ishikawa human endometrial tumor cells are maintained in MEM (minimum essential medium, with Earle's salts and L-Glutamine, Gibco BRL, Gaithersburg, Md.), supplemented with 10% fetal bovine serum (FBS) (V/V), (Gibco BRL). […]
For the agonist mode, plates receive 25 μl/well of assay medium followed by 25 μl/well of a diluted compound of the present invention (at 6× the final concentrations). […] After a 20-minute incubation, plates are read on a spectophotometer at 405 nm.
The data is fitted to a linear interpolation to derive EC50 (for agonist mode) or IC50 (for antagonist mode) values. For the antagonist mode, a % efficacy for each compound is calculated versus E2 (1 nM) alone. For the agonist mode, a % efficacy for each compound is calculated versus the response to tamoxifen.

Data set [2] relates to immature (3 week old) female rats. Kind of data set: 3-Day Rat Uterus Antagonist Assay. The data set is classed as in vivo. The following applies: oral, 3 days, with E2 0.1 mg/kg.
From the text: 3-Day Rat Uterus Antagonist Assay: This model for uterine antagonism utilizes immature (3 week old) female rats that are highly sensitive to estrogenic stimulation of the uterus given that their circulating estrogen levels are prepubertal. The uteri from immature rats are fully responsive to exogenous estrogen, yet are quiescent in the absence of exogenous estrogen. Administration of exogenous estrogen to immature rats produces a reliable elevation of uterine weight, which can be used to study uterine antagonist effects.
Test compounds are dissolved in 20% β-hydroxycyclodextrin and administered by oral gavage in a volume of 0.2 mL daily (15 min. prior to the ethynyl estradiol gavage). A vehicle control, E2 alone and E2+raloxifene are also done as controls. The animals are fasted overnight following the final dose. […]
Uterine weight/body weight ratios (UWR) are calculated for each animal. The percent inhibition of the estrogen-induced response is then calculated by the following formula: percent inhibition=100×(UWRestrogen−UWRtest compound/UWRestrogen−UWRcontrol). […] Both the UWR data and the percent inhibition data were statistically analyzed by one way analysis of variance (ANOVA) with post-hoc testing by Fisher's PLSD when indicated by a p≦0.05. […]
Data set [3] concerns mature, ovariectomized rats. Kind of data set: 4-Day OVX Rat Uterine Agonist Assay. The data set is classed as in vivo. The following applies: 4 days of treatment, 3 doses. As to the method:
Cholesterol levels are also measured to compare relative ability to lower cholesterol with other SERMs. If there is any question of uterine stimulation, histological examination will determine epithelial cell height.

Data set [4] has as its system Ishikawa human endometrial tumor cells. The experiment in a line: Ishikawa Cell Proliferation Assay, agonist mode (alkaline phosphatase readout). The data set is classed as cell-based. The conditions noted are these: versus the response to tamoxifen, read-out: relative % efficacy.

Counter-ions that a name gives are not always drawn.

For the molecule `CS(=O)(=O)c1cccc(-c2ccc3cc(O)ccc3c2Oc2ccc(OCCN3CCCCC3)cc2)c1` [Example 16, 6-(3-Methanesulfonyl-phenyl)-5-[4-(2-piperidin-1-yl-ethoxy)-phenoxy]-naphthalen-2-ol Hydrochloride], the IC50 in data set [1] (1 nM E2) came out at 35.2 nM. In data set [1] (versus E2 (1 nM) alone, read-out: % efficacy (inhibition of the 1 nM estradiol response)), the Emax is 107%. With `CS(=O)(=O)c1ccc(-c2sc3cc(O)ccc3c2Oc2ccc(OCCN3CCCCC3)cc2)cc1.Cl` [Example 92, 2-(4-Methanesulfonyl-phenyl)-3-[4-(2-piperidin-1-yl-ethoxy)-phenoxy]-benzo[b]thiophen-6-ol Hydrochloride], in data set [2], the “% antagonism” value stood at 62.7% and the ED50 worked out at 0.53 mpk.

Consider `CCS(=O)(=O)c1ccc(-c2ccc3cc(O)ccc3c2Oc2ccc(OCCN3CCCCC3)cc2)cc1.Cl` [Example 14, 6-(4-Ethanesulfonyl-phenyl)-5-[4-(2-piperidin-1-yl-ethoxy)-phenoxy]-naphthalen-2-ol Hydrochloride], for which, in data set [3], the “uterine eosinophil peroxidase (EPO) activity” value is recorded as “did not cause dose-related statistically significant increases”. `CCS(=O)(=O)c1cc(-c2ccc3cc(O)ccc3c2Oc2ccc(OCCN3CCCCC3)cc2)cc(S(=O)(=O)CC)c1` [Example 56, 6-(3,5-Bis-ethanesulfonyl-phenyl)-5-[4-(2-piperidin-1-yl-ethoxy)-phenoxy]-naphthalen-2-ol Hydrochloride]: the Emax in data set [4] stood at 71.8%.
